What was measured:
[1] = Total selenium concentrations in the tissues of red seabream after feeding selenium-supplemented dry pellet (fluorometric assay with 2,3-diamino-naphthalene); format: in vivo, red seabream Pagrus major
Protocol: (§1) Red seabream fry (average body weight of 5.4 g) was obtained from private seed and seedling production company (Oita, Japan) and cultured for seven months up to average body weight of 250 g. Chemical composition of control diet was containing crude protein 50%; […]; Ca 2.3%; ash 16.0%; and phosphorus 1.5%. Each selenium-added diet was fed twice a day for 4 weeks in an amount of 1% of the average body weight. Body weight of fish in each tank was measured when fish were sampled and amount of diet was calculated according to the body weight of every sampling day. The added selenium concentrations in the diets were set in 0 ppm, 1 ppm, and 2 ppm selenium according to the previous study (Tohfuku et al. [2021]). After that, they were fed a commercial diet twice a day for 1 week. The test groups were the control group, the sodium selenite group (1 mg Se/kg feeding group and 2 mg Se/kg feeding group), the selenomethionine group (1 mg Se/kg feeding group and 2 mg Se/kg feeding group), and the selenoneine group (1 mg Se/kg feeding group and 2 mg Se/kg feeding group) were set. The number of fish raised was 15 from the start of rearing in each tank until the 2nd week, 10 from the 3rd to 4th week, and 5 in the 5th week. […] We reared red seabream by feeding of 1% dry pellet containing of sodium selenite, selenomethionine, or selenoneine of body weight twice a day for 4 weeks. After that, we replaced to 1% of commercial dry pellet of body weight twice a day for 1 week from the selenium supplementation. Average water temperature was 20.9 ℃ (19.0–23.9 ℃) and average dissolved oxygen was 7.41 mg/L. The body weight change of red seabream for 5 weeks is shown in Table S2.
(§2) Red seabream was anesthetized by adding 2 mL of anesthetic (1/100 volume of 2-methylquinoline dissolved in ethanol) to 1 L of seawater. A small amount of an anticoagulant (heparin sodium dissolved in physiological saline; 800 units/mL) was placed in a syringe in advance, and blood was collected from the caudal peduncle of each fish. The collected blood was centrifuged at 5000 rpm for 5 min (4 °C), divided into a plasma fraction and a precipitated fraction, and stored at − 50 °C. The precipitated fraction was used for analysis as the blood cell fraction.
Total selenium concentration was determined by fluorometric assay with 2,3-diamino-naphthalene, after digestion in 1.5 mL of nitric acid and perchloric acid (1:2 in volume) at 200–220 ℃ (Watkinson [1966]; Yamashita and Yamashita [2010]).

[2] = Selenoneine concentration in white muscle and blood cell by HPLC-ICP-MS (82Se); format: in vivo, red seabream Pagrus major; conditions: for Selenoneine concentration, blood cell / Selenoneine concentration, white muscle: fish cultured for 4 weeks
Protocol: as §1, §2
Selenoneine was separated by chromatography using a Shodex GF-310 column (4.5 mm × 150 mm; Showa Denko, Tokyo, Japan) equilibrated with 100 mM ammonium formate buffer containing 0.1% (w/v) Igepal CA-630 (MP Biomedicals, CA, USA). The injection volume was at 10 μL. The mobile phase delivered at 0.5 mL/min isocratically. ^82Se was detected with high performance liquid chromatography inductively coupled plasma mass spectrometry (HPLC-ICP-MS; Agilent 1100 Series and Agilent 7500 Series, Agilent Technology) (Yamashita and Yamashita [2010]). During separation, selenoneine was eluted at a retention time of 200 s, and the selenium concentration was determined using selenoneine as a standard.

[3] = Uptake factor of selenoneine from feed (ratio of concentration in muscle or blood cells to feed); format: in vivo, red seabream Pagrus major; conditions: artificial feed containing selenoneine at 0.1–2 mg Se/kg
Protocol: Uptake factor is defined as a ratio of selenoneine concentration in muscle or blood cells to those in feed, and is the same as the biomagnification factor (Yamada et al. [1994]). Thus, uptake factor is an indicator showing the degree of accumulation of selenoneine in muscle or blood cells by dietary intake of feed. The uptake factor was calculated by the following equation on the equilibrium period of the dietary exposure experiments:
Uptake factor = ((Cen − Cb) / CF) × 10^–3where Cen is selenoneine concentration in muscle or blood cells of fish fed with selenoneine-contained feed (ng/kg), Cb is selenoneine concentration in muscle or blood cells of the control fish (ng/kg wet), and CF is the selenoneine concentration in the contained feed (μg/kg).

red seabream = assay: Oxidation-reduction potential (ORP) in white muscle; format: in vivo, red seabream Pagrus major; conditions: 2 weeks; 1 or 2 ppm in diet
Protocol: ORP was measured with ORP electrode (9300, Horiba, Kyoto, […]). The electrode was pierced into muscle and pressed gently until the potential stabilized for 60 s.

yellowtail = tested on: yellowtail; design: method as in Our unpublished research; conditions: ref Our unpublished research; cited from earlier work
[4] = 5 weeks (4 weeks supplementation, then 1 week commercial diet), diet 1 mg Se/kg added
[5] = 5 weeks (4 weeks supplementation, then 1 week commercial diet), diet 2 mg Se/kg added

## C[N+](C)(C)[C@@H](Cc1cnc([Se-])[nH]1)C(=O)O [Selenoneine, 2-selenyl-Nα, Nα, Nα-trimethyl-L-histidine]
[1]; 2 weeks, diet 1 mg Se/kg added
  Total selenium content, blood cell: 3.98 ± 1.00 mg Se/kg
  Total selenium content, brain: 0.48 ± 0.02 mg Se/kg
  Total selenium content, heart: 1.11 ± 0.11 mg Se/kg
  Total selenium content, hepatopancreas: 1.27 ± 0.18 mg Se/kg
  Total selenium content, kidney: 3.22 ± 0.18 mg Se/kg
  Total selenium content, spleen: 3.45 ± 0.56 mg Se/kg
  Total selenium content, white muscle: 0.39 ± 0.05 mg Se/kg
[1]; 2 weeks, diet 2 mg Se/kg added
  Total selenium content, blood cell: 9.28 ± 1.67 mg Se/kg
  Total selenium content, brain: 0.50 ± 0.04 mg Se/kg
  Total selenium content, heart: 1.32 ± 0.18 mg Se/kg
  Total selenium content, hepatopancreas: 1.51 ± 0.26 mg Se/kg
  Total selenium content, kidney: 3.46 ± 0.43 mg Se/kg
  Total selenium content, spleen: 4.69 ± 0.79 mg Se/kg
  Total selenium content, white muscle: 0.35 ± 0.04 mg Se/kg
[1]; 4 weeks, diet 1 mg Se/kg added
  Total selenium content, blood cell: 5.93 ± 1.00 mg Se/kg
  Total selenium content, brain: 0.55 ± 0.06 mg Se/kg
  Total selenium content, heart: 1.16 ± 0.11 mg Se/kg
  Total selenium content, hepatopancreas: 1.22 ± 0.14 mg Se/kg
  Total selenium content, kidney: 3.17 ± 0.40 mg Se/kg
  Total selenium content, spleen: 3.23 ± 0.37 mg Se/kg
  Total selenium content, white muscle: 0.40 ± 0.05 mg Se/kg
[1]; 4 weeks, diet 2 mg Se/kg added
  Total selenium content, blood cell: 9.94 ± 2.05 mg Se/kg
  Total selenium content, brain: 0.56 ± 0.05 mg Se/kg
  Total selenium content, heart: 1.19 ± 0.09 mg Se/kg
  Total selenium content, hepatopancreas: 1.35 ± 0.18 mg Se/kg
  Total selenium content, kidney: 4.03 ± 0.72 mg Se/kg
  Total selenium content, spleen: 5.20 ± 1.01 mg Se/kg
  Total selenium content, white muscle: 0.43 ± 0.04 mg Se/kg
[1]; [4]
  Total selenium content, blood cell: 4.70 ± 0.53 mg Se/kg
  Total selenium content, brain: 0.48 ± 0.09 mg Se/kg
  Total selenium content, heart: 1.09 ± 0.15 mg Se/kg
  Total selenium content, hepatopancreas: 1.34 ± 0.26 mg Se/kg
  Total selenium content, kidney: 2.96 ± 0.32 mg Se/kg
  Total selenium content, spleen: 3.15 ± 0.83 mg Se/kg
  Total selenium content, white muscle: 0.38 ± 0.04 mg Se/kg
[1]; [5]
  Total selenium content, blood cell: 9.10 ± 1.48 mg Se/kg
  Total selenium content, brain: 0.47 ± 0.04 mg Se/kg
  Total selenium content, heart: 1.28 ± 0.29 mg Se/kg
  Total selenium content, hepatopancreas: 1.40 ± 0.25 mg Se/kg
  Total selenium content, kidney: 3.51 ± 0.49 mg Se/kg
  Total selenium content, spleen: 3.16 ± 0.68 mg Se/kg
  Total selenium content, white muscle: 0.38 ± 0.03 mg Se/kg
[1]; diet 1 mg Se/kg
  Tissues in which total selenium was accumulated compared with the control group: white muscle, kidney, spleen, hepatopancreas, brain, and blood cell
[1]; diet 2 mg Se/kg
  Tissues in which total selenium was accumulated compared with the control group: white muscle, heart, kidney, spleen, hepatopancreas, brain, and blood cell
[2]; blood cell, 4 weeks
  Selenoneine as share of total selenium in blood cell: more than 63%
[2]; blood cell, diet 1 mg Se/kg added
  Selenoneine concentration, blood cell: 4.72 ± 1.06 mg Se/kg
[2]; blood cell, diet 1 mg Se/kg added, listed as selenoneine
  Selenoneine concentration, blood cell: 4.72 ± 1.06 mg Se/kg
[2]; blood cell, diet 2 mg Se/kg added
  Selenoneine concentration, blood cell: 10.29 ± 3.14 mg Se/kg
[2]; blood cell, diet 2 mg Se/kg added, listed as selenoneine
  Selenoneine concentration, blood cell: 10.29 ± 3.14 mg Se/kg
[2]; white muscle, 4 weeks
  Selenoneine as share of selenium in white muscle: 4.6–7.0%
[2]; white muscle, diet 1 mg Se/kg added
  Selenoneine concentration, white muscle: 0.025 ± 0.003 mg Se/kg
[2]; white muscle, diet 1 mg Se/kg added, listed as selenoneine
  Selenoneine concentration, white muscle: 0.025 ± 0.003 mg Se/kg
[2]; white muscle, diet 2 mg Se/kg added
  Selenoneine concentration, white muscle: 0.030 ± 0.007 mg Se/kg
[2]; white muscle, diet 2 mg Se/kg added, listed as selenoneine
  Selenoneine concentration, white muscle: 0.030 ± 0.007 mg Se/kg
[2]; white muscle, selenoneine 1 mg Se/kg administration group
  Selenoneine concentration in white muscle: 25.4 ± 3.2 µg Se/kg
[2]; white muscle, selenoneine 2 mg Se/kg administration group
  Selenoneine concentration in white muscle: 30.0 ± 6.6 µg Se/kg
[2]; white muscle, selenoneine 2 ppm administration group
  Ratio of selenium used in selenoneine in white muscle: about 7.0%
[3]; blood (blood cells)
  Uptake factor of selenoneine in the blood: 4.0
[3]; white muscle
  Uptake factor of selenoneine in the white muscle: 0.0062
Red seabream
  ORP in white muscle compared to control: reduced ORP
yellowtail
  ORP after dietary intake: reduced ORP and approached the ORP of wild fish
